Here are results for 15 molecules from patent publication US20230023332A1, “OLEAN-PHENYLACRYLAMIDE DERIVATIVE, METHOD FOR PREPARING SAME, AND USE THEREOF” (Lunan Pharmaceutical Group Corporation, priority 2019, published 2023).

Like-named read-outs stand apart in the source and are kept apart here.

Common to all, as to assay type: cell-based
Data set [1] concerns human non-small cell lung cancer cell strain A549. In words: MTT proliferation inhibition, A549. Particulars: Homo sapiens, A549 cells, 48 h, read-out: Inhibitory activity (IC50) against proliferation, A549. The protocol:
(§1) The anti-tumor activity of the compounds of the present invention was determined by the method of methyl thiazolyl tetrazolium (MTT), Bardoxolone Methyl (CDDO-Me) being selected as a positive control medicament.
(§2) Instruments: ultra-clean bench (SW-CJ-1FD, AIRTECH, Suzhou Antai Airtech Co. Ltd.), constant-temperature CO2 incubator (3111, Thermo, USA), inverted biomicroscope (IX71, OLYMPUS, Japan), ELISA microplate reader (Model 680, BIO-RAD, USA), platform shaker (Kylin-bell lab Instruments), autoclave (YXO.SG4I.280, Shanghai Huaxian), and centrifuge (SIGMA).
(§3) Reagents: DMEM (GIBCO), fetal bovine serum (GIBCO), trypsin (SIGMA), and DMSO (SIGMA).
(§4) Cell strains: human non-small cell lung cancer cell strain A549, human liver cancer cell strain HepG2, human breast cancer cell strain MCF-7, human renal tubular epithelial cells HK-2, rat embryonic cardiomyocytes H9C2 (all provided by Jiangsu KeyGEN BioTECH Co., Ltd.).
(§5) Methods: the cryopreserved cell strains were resuscitated and cultured in a CO2 incubator at a constant temperature of 37° C. with liquid being changed once daily. Plating was carried out when the cell strains were in a good state in the exponential phase. 1 mL of 0.25% trypsin solution was added for digestion for 1-2 min. The cell status was observed under the microscope, and when the adherent cells became round and shrunk, the digestion solution was aspirated and 1-2 mL of a DMEM medium containing 10% fetal bovine serum was added to obtain a cell suspension, on which a cell count was performed. The amount of required cell suspension was calculated on the basis of 5×10^4 cells per well and the total number of wells. The cell suspension was inoculated on a 96-well plate at 100 μL/well, the surroundings being blocked with PBS, followed by incubation in a CO2 incubator at a constant temperature of 37° C. for 24 h.
(§6) The test medicament, positive control medicament CDDO-Me, and blank control group DMSO were prepared in DMEM media to a final concentration of 5 μM/well, each medicament being placed in 3 replicate wells, followed by incubation for 48 h. The MTT reagent was added to the 96-well plate at 10 μL/well to further incubate for 4 h. The medium in the plate was aspirated and 100 μL of DMSO was added to each well, followed by shaking on the platform shaker for 10 min such that the crystals were dissolved. The absorbance of each well was examined by the ELISA microplate reader at a wavelength of 570 nm, and the cell inhibition rate was calculated according to the formula hereinafter. The mean value of three preliminary screening results was taken as the final inhibition rate thereof.
(§7) Cell inhibition rate (%)=[(OD value of blank control−OD value of dosing cohort)/OD value of blank control group]×100%

Data set [2] relates to human breast cancer cell strain MCF-7. Nature of the data set: MTT proliferation inhibition, MCF-7. Particulars: Homo sapiens, MCF7, MCF-7 cells, 48 h, read-out: Inhibitory activity (IC50) against proliferation, MCF-7. The protocol: as §1, §2, §3, §4, §5, §6, §7
Data set [3] deals with human liver cancer cell strain HepG2. Nature of the data set: MTT proliferation inhibition, HepG2. The note with it: Homo sapiens, HepG2 cells, 48 h, read-out: Inhibitory activity (IC50) against proliferation, HepG2. The protocol: as §1, §2, §3, §4, §5
The MTT reagent was added to the 96-well plate at 10 μL/well to further incubate for 4 h. The medium in the plate was aspirated and 100 μL of DMSO was added to each well, followed by shaking on the platform shaker for 10 min such that the crystals were dissolved. […] The mean value of three preliminary screening results was taken as the final inhibition rate thereof.
as §7

Data set [4] has as its system human renal tubular epithelial cells HK-2. Nature of the data set: MTT proliferation inhibition / toxicity, HK-2. Particulars: for IC50: Homo sapiens, HK-2 cells, MTT, 48 h, read-out: Inhibitory activity (IC50) against proliferation, HK-2; for toxicity to human renal tubular epithelial cells HK-2: statement in words. The procedure: as §1, §2, §3, §4, §5, §6, §7

The subject of data set [5] is rat embryonic cardiomyocytes H9C2. Nature of the data set: MTT proliferation inhibition / toxicity, H9C2. Particulars: Rattus norvegicus, H9C2 cardiomyocytes, MTT, 48 h, read-out: Inhibitory activity (IC50) against proliferation, H9C2. The procedure:
as §1, §2, §3, §4, §5, §6, §7

In the case of `CC1(C)CC[C@]2(NC(=O)/C=C/c3ccccc3)CC[C@]3(C)[C@H](C(=O)C=C4[C@@]5(C)C=C(C#N)C(=O)C(C)(C)[C@@H]5CC[C@]43C)[C@@H]2C1` [Compound I-1], the IC50 in data set [1] was determined as 599 ± 377 nM; in data set [2] it was 574 ± 21 nM; in data set [3], 409 ± 16 nM; in data set [4], 799 ± 92 nM; in data set [5] it was 251 ± 8 nM. Besides, in data set [4], the “toxicity to human renal tubular epithelial cells HK-2” value (“toxicity” below) was “lower toxicity”.

In the case of `CC1(C)CC[C@]2(NC(=O)/C=C/c3ccc(Cl)cc3)CC[C@]3(C)[C@H](C(=O)C=C4[C@@]5(C)C=C(C#N)C(=O)C(C)(C)[C@@H]5CC[C@]43C)[C@@H]2C1` [Compound I-6], the IC50 was 588 ± 36 nM in data set [1]; 738 ± 9 nM in data set [2]; 482 ± 2 nM in data set [3]; 727 ± 430 nM in data set [4]; 373 ± 2 nM in data set [5]. Besides, the “toxicity” value in data set [4] is “lower toxicity”.

Turning to `CC1(C)CC[C@]2(NC(=O)/C(C#N)=C/c3ccc(C(F)(F)F)cc3)CC[C@]3(C)[C@H](C(=O)C=C4[C@@]5(C)C=C(C#N)C(=O)C(C)(C)[C@@H]5CC[C@]43C)[C@@H]2C1` [Compound I-10], the IC50 stood at 362 ± 12 nM in data set [1]; 460 ± 105 nM in data set [2]; 297 ± 11 nM in data set [3]; 234 ± 117 nM in data set [4]; 233 ± 10 nM in data set [5].

In the case of `Cc1ccc(/C=C/C(=O)N[C@]23CCC(C)(C)C[C@H]2[C@H]2C(=O)C=C4[C@@]5(C)C=C(C#N)C(=O)C(C)(C)[C@@H]5CC[C@@]4(C)[C@]2(C)CC3)cc1` [Compound I-2], the IC50 in data set [1] came out at 549 ± 10 nM; in data set [2] it was 547 ± 74 nM; in data set [3], 772 ± 63 nM; in data set [4], 1390 ± 32 nM; in data set [5], 218 ± 7 nM. Further, in data set [4], the “toxicity” value is on record as “lower toxicity”.

Regarding `Cc1ccc(/C=C(\C#N)C(=O)N[C@]23CCC(C)(C)C[C@H]2[C@H]2C(=O)C=C4[C@@]5(C)C=C(C#N)C(=O)C(C)(C)[C@@H]5CC[C@@]4(C)[C@]2(C)CC3)cc1` [Compound I-8], the IC50 in data set [1] was 329 ± 47 nM; in data set [2], 789 ± 52 nM; in data set [3], 563 ± 23 nM; in data set [4], 423 ± 30 nM; in data set [5] it was 274 ± 2 nM. Besides, the “toxicity” value in data set [4] was “lower toxicity”.

On to `CC1(C)CC[C@]2(NC(=O)/C=C/c3ccc(F)cc3)CC[C@]3(C)[C@H](C(=O)C=C4[C@@]5(C)C=C(C#N)C(=O)C(C)(C)[C@@H]5CC[C@]43C)[C@@H]2C1` [Compound I-5], for which the IC50 came out at 788 ± 345 nM in data set [1]; 1310 ± 127 nM in data set [2]; 785 ± 96 nM in data set [3]; 2825 ± 4 nM in data set [4]; 316 ± 1 nM in data set [5]. The “toxicity” value in data set [4] is listed as “lower toxicity”.

With `CC1(C)CC[C@]2(NC(=O)/C=C(\C#N)c3ccc(Cl)cc3)CC[C@]3(C)[C@H](C(=O)C=C4[C@@]5(C)C=C(C#N)C(=O)C(C)(C)[C@@H]5CC[C@]43C)[C@@H]2C1` [Compound I-18], the IC50 in data set [1] came to 300 ± 13 nM; in data set [2] it was 500 ± 170 nM; in data set [3], 406 ± 17 nM; in data set [4], 647 ± 21 nM. Moreover, the “toxicity” value in data set [4] is listed as “lower toxicity”.

In the case of `Cc1ccc(/C(C#N)=C/C(=O)N[C@]23CCC(C)(C)C[C@H]2[C@H]2C(=O)C=C4[C@@]5(C)C=C(C#N)C(=O)C(C)(C)[C@@H]5CC[C@@]4(C)[C@]2(C)CC3)cc1` [Compound I-14], the IC50 in data set [1] is 337 ± 15 nM; in data set [2], 432 ± 188 nM; in data set [3] it was 313 ± 35 nM; in data set [4], 939 ± 62 nM; in data set [5], 14 ± 1 nM. In addition, the “toxicity” value in data set [4] is listed as “lower toxicity”.

As for `CC1(C)CC[C@]2(NC(=O)/C=C(\C#N)c3ccc(F)cc3)CC[C@]3(C)[C@H](C(=O)C=C4[C@@]5(C)C=C(C#N)C(=O)C(C)(C)[C@@H]5CC[C@]43C)[C@@H]2C1` [Compound I-17], the IC50 in data set [1] was found to be 345 ± 174 nM; in data set [2], 238 ± 8 nM; in data set [3] it was 114 ± 4 nM; in data set [4], 229 ± 126 nM.

Take `CC1(C)CC[C@]2(NC(=O)/C(C#N)=C/c3ccc(F)cc3)CC[C@]3(C)[C@H](C(=O)C=C4[C@@]5(C)C=C(C#N)C(=O)C(C)(C)[C@@H]5CC[C@]43C)[C@@H]2C1` [Compound I-11]: the IC50 in data set [1] worked out at 609 ± 67 nM; in data set [2] it was 424 ± 129 nM; in data set [3], 337 ± 12 nM; in data set [4], 308 ± 71 nM; in data set [5] it was 52 ± 1 nM.

Consider `CC1(C)CC[C@]2(NC(=O)/C=C(\C#N)c3ccccc3)CC[C@]3(C)[C@H](C(=O)C=C4[C@@]5(C)C=C(C#N)C(=O)C(C)(C)[C@@H]5CC[C@]43C)[C@@H]2C1` [Compound I-13], for which the IC50 in data set [1] turned out to be 414 ± 17 nM; in data set [2] it was 375 ± 130 nM; in data set [3], 328 ± 13 nM; in data set [4], 473 ± 630 nM; in data set [5] (H9c2, 48 h) it was 7 ± 9 nM. In addition, the “toxicity” value in data set [4] is “lower toxicity”.

For the molecule `CC1(C)CC[C@]2(NC(=O)/C=C/c3ccc(C(F)(F)F)cc3)CC[C@]3(C)[C@H](C(=O)C=C4[C@@]5(C)C=C(C#N)C(=O)C(C)(C)[C@@H]5CC[C@]43C)[C@@H]2C1` [Compound I-4], the IC50 in data set [1] was 402 ± 20 nM; in data set [2], 562 ± 132 nM; in data set [3] it was 412 ± 6 nM; in data set [4] it was 516 ± 72 nM; in data set [5] it was 215 ± 4 nM. The “toxicity” value in data set [4] is given as “lower toxicity”.

As for `COc1ccc(/C=C/C(=O)N[C@]23CCC(C)(C)C[C@H]2[C@H]2C(=O)C=C4[C@@]5(C)C=C(C#N)C(=O)C(C)(C)[C@@H]5CC[C@@]4(C)[C@]2(C)CC3)cc1` [Compound I-3], the IC50 in data set [1] worked out at 367 ± 18 nM; in data set [2], 375 ± 38 nM; in data set [3], 527 ± 133 nM; in data set [4], 700 ± 16 nM; in data set [5], 174 ± 5 nM. For the same molecule, the “toxicity” value in data set [4] is “lower toxicity”.

Consider `COc1ccc(/C(C#N)=C/C(=O)N[C@]23CCC(C)(C)C[C@H]2[C@H]2C(=O)C=C4[C@@]5(C)C=C(C#N)C(=O)C(C)(C)[C@@H]5CC[C@@]4(C)[C@]2(C)CC3)cc1` [Compound I-15], for which the IC50 amounted to 658 ± 58 nM in data set [1]; 551 ± 140 nM in data set [2]; 524 ± 32 nM in data set [3]; 350 ± 37 nM in data set [4]; 146 ± 12 nM in data set [5].

Regarding `COc1ccc(/C=C(\C#N)C(=O)N[C@]23CCC(C)(C)C[C@H]2[C@H]2C(=O)C=C4[C@@]5(C)C=C(C#N)C(=O)C(C)(C)[C@@H]5CC[C@@]4(C)[C@]2(C)CC3)cc1` [Compound I-9], the IC50 amounted to 624 ± 111 nM in data set [1]; 1130 ± 40 nM in data set [2]; 816 ± 14 nM in data set [3]; 748 ± 341 nM in data set [4]; 417 ± 19 nM in data set [5]. In addition, the “toxicity” value in data set [4] is “lower toxicity”.
